The target in this test is SARS-CoV-2 M^pro (Severe acute respiratory syndrome coronavirus 2, UniProt P0DTD1). Put plainly: FRET-based SARS-CoV-2 Mpro inhibition activity assay. It is filed as biochemical. Conditions: SARS-CoV-2 M^pro inhibition IC50, FRET-based protease assay.

Turning to `COc1cc(O)ccc1/C=C/C(=O)c1ccc(O)cc1` [Echinatin], the IC50 stood at 22.5 µM.

One may read the IC50 as the midpoint of a concentration-inhibition curve. High values mean weaker potency in that assay, low ones greater potency in that assay.

The record behind these values is publication PMC10160982 (Proceedings of the National Academy of Sciences of the …, 2023).
